This note sets out measurements from patent publication US6949352B2, “Serine-threonine phosphatase protein of a parasitic organism of the Apicomplexa phylum, applications in therapeutics” (Centre National de la Recherche Scientifique (CNRS), priority 2001, dated 2005).

The subject of data set [1] is parasite kinase activity which phosphorylates Toxofilin. In words: Kinase reaction on rToxofilin with tachyzoïte cytosolic fraction, with pharmacological inhibitors. The note with it: inhibitors added 15 min before starting the kinase reaction: heparin 20 μg per ml, GTP 200 μM, DRB 100 μM, [γ32P] ATP, 30° C. Format: biochemical, Toxoplasma gondii. The method, then:
Kinase reaction: 2 μg of immobilized rToxofilin on protein G-dynabeads were washed in kinase buffer before to be incubated with a tachyzoïte cytosolic fraction prepared in kinase buffer ([…]) and precleared on protein G-dynabeads. The reaction was started by adding 100 μM of Na2 ATP and 10 μCi of [γ^32P] ATP (3000 Ci/mmol, NEN life science product, Inc) (15 min, 30° C.). Unbound materials and unincorporated [γ^32P] ATP were washed out with 200 volumes of kinase buffer containing with TX-100 (0.5% vol/vol) followed by 100 volumes of kinase buffer. Toxofilin and bound proteins were eluted in SDS-PAGE sample buffer prior to electrophoresis and radioactivity scan (phosphoimager, Molecular Dynamics). Toxofilin phosphorylation was quantified using NIH Image Quant software.
To characterize the kinase activity responsible for Toxofilin phosphorylation, three types of experiments were carried out:
1) Pharmacological inhibitors such as heparin (20 μg per ml, Sigma), GTP (200 μM, Sigma), 5,6-dichloro-1-B-D-ribofuranosylbenzimidazole (100 μM, Calbiochem) or staurosporine (1 μM, Calbiochem) were added 15 min before starting the kinase reaction.

Data set [2] concerns recombinant Toxofilin (r-Toxofilin) without GST.
Data set [3] addresses recombinant Toxofilin (r-Toxofilin) without GST. This is another data set of the same source.

As to `Nc1nc2c(ncn2[C@@H]2O[C@H](COP(=O)(O)OP(=O)(O)OP(=O)(O)O)[C@@H](O)[C@H]2O)c(=O)[nH]1` [GTP], the “inhibition of the parasite kinase activity which phosphorylates Toxofilin” value in data set [1] is listed as “inhibited”.
As for Human casein kinase II, the “phosphorylation of Toxofilin” value in data set [2] is “Human casein kinase II works well at phosphorylating Toxofilin”.
With `OC[C@H]1O[C@@H](n2cnc3cc(Cl)c(Cl)cc32)[C@H](O)[C@@H]1O` [DRB, 5,6-dichloro-1-B-D-ribofuranosylbenzimidazole], in data set [1], the “inhibition of the parasite kinase activity which phosphorylates Toxofilin” value is listed as “inhibited”.
Same read-out and setting: next, heparin [soluble heparin]: “inhibited”.

B1: Thioredoxin-Hispatch Tg PP2C (protein)
chain: MKSSAEIRRTMDVPPTIHVPLPPTSYPAFDAAIFTDIGGRKHQEDRFTLCPQLVPGRDDCAFFGVFDGTVGDFASENVKDLVVPQLISSPAWQEVTEMLRSDVPATEVDEKLPQLLDQAVDDMYKNADNELVKMCEQLNKDYASSTSVTAVLAKGFVAVGHLGDSRIAMGVETPNGLNCEFLTVDHKPDMPHEKLRIMRNGGSVEYLHNHNNKPFIRGGDFSFRKSRGEQPMQLQYSRALGGKDLKMYGLSNQPDVRVVRVTPQHRVMILATDGLWDVMFAAQAVEIAMQARQEGRNPAQALVEMTLAEQQSRNQSADNITAMTVFFKKTD
As to B1, the “in vitro phosphatase assay on 32P-phosphorylated Toxofilin” value in data set [3] is recorded as “Toxofilin is a major substrate for type 2C phosphatase”.
